The source of these data is patent US20180000744A1, “NANOENCAPSULATED COMPOSITIONS” (Georgia Southern Research and Service Foundation, Inc., priority 2016, published 2018).

The experiment concerns Human prostatic cancer cell PC3. Description: In vitro cytotoxicity / biocompatibility test, MTS assay. The experiment is classed as cell-based. The settings on record: 5 μM initial drug concentration in the media, 48 hours. The method, then:
Human prostatic cancer cell PC3 were used to test the biocompatibility and cytotoxicity of FU loaded PCL nanofibers. Human prostatic cancer cell derived from metastatic site (bone) was purchased from ATCC, USA. 57 ml of fetal bovine serum (USA origin purchased from Sigma Aldrich), 7 ml of Penicillin-Streptomycin (Life Technologies) and 6 ml of HEPES (Life Technologies) was added to 500 ml RPMI-1640 medium (Fisher Scientific). This media is called R+ media. 96 well plate were used to grow PC3 cells (sterile and flat bottom type purchased from fisher scientific). 100 μL of PC3 cells at 8×10^4 cells/ml were added on each wells of 96 well plate for all tests. PC3 cells were incubated at 37° C. in a humidified 5% CO2 atmosphere for 24 hours before performing any test. […]
The cytotoxicity of NFs set A and D was assessed. […]
96 well plates were incubated at 37° C. in a humidified, 5% CO2 atmosphere for 48 hours to give sufficient time for the fluorouracil to inhibit essential biosynthetic process of the PC3 cells and thus cause cell death. […] Well plates were kept again in CO2 incubator for 3 hours and then their absorbance were measured at 490 nm using UV-Vis spectrometer. Absorbance of cells with different concentration of drug was compared with the absorbance of PC3 cells with no drug to determine the cell viability. […]
On the technique in general: Formazan colour is commonly taken as a measure of viable cells.

`O=c1[nH]cc(F)c(=O)[nH]1` [pristine FU, 5-Fluorouracil] showed an alive cells of 43%.
